Reference: ChEMBL document CHEMBL1201862, “PubChem BioAssay data set” (2004)
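96-well plates; 48 h exposure; 5 concentrations. Endpoints by linear interpolation between flanking doses. Not reached: highest tested concentration assigned. Here, GI50 denotes the concentration required for 50% inhibition of growth.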 Active and inactive are the calls of the source. Rule as the data show it: active = GI50 up to about 1.1 µM and inactive = higher.

Legend:
Experiment in all cases: NCI anticancer screen, dose series, 48 h
A549 = tested on: A549
ACHN = tested on: ACHN
COLO 205 = tested on: COLO 205
HCT-15 = tested on: HCT-15
HOP-62 = tested on: HOP-62
HT-29 = tested on: HT-29
IGROV-1 = tested on: IGROV-1
MOLT-4 = tested on: MOLT-4
NCI-H226 = tested on: NCI-H226
OVCAR-3 = tested on: OVCAR-3
OVCAR-4 = tested on: OVCAR-4
RPMI-8226 = tested on: RPMI-8226
SF-539 = tested on: SF-539
SK-MEL-2 = tested on: SK-MEL-2
SR = tested on: SR
U-251 = tested on: U-251
UO-31 = tested on: UO-31
HCC 2998 = tested on: HCC 2998
MDA-N = tested on: MDA-N

Cc1ccc(C(=O)CC(Cl)=C(Cl)Cl)cc1
GI50 (A549): > 100 µM (inactive) | GI50 (ACHN): > 100 µM (inactive) | GI50 (COLO 205): > 100 µM (inactive) | GI50 (HCT-15): 67.1 µM | GI50 (HOP-62): > 100 µM (inactive) | GI50 (HT-29): > 100 µM (inactive) | GI50 (IGROV-1): > 100 µM (inactive) | GI50 (MOLT-4): 20.5 µM (inactive) | GI50 (NCI-H226): 85.5 µM (inactive) | GI50 (OVCAR-3): 45.6 µM (inactive) | GI50 (OVCAR-4): 63.2 µM (inactive) | GI50 (RPMI-8226): 29.2 µM (inactive) | GI50 (SF-539): > 100 µM (inactive) | GI50 (SK-MEL-2): > 100 µM (inactive) | GI50 (SR): 25.7 µM (inactive) | GI50 (U-251): > 100 µM (inactive) | GI50 (UO-31): > 100 µM (inactive)

Cc1cc(-c2ccc(C(=O)O)[nH]2)on1
GI50 (A549): 34.8 µM (inactive) | GI50 (ACHN): > 100 µM (inactive) | GI50 (COLO 205): 22.3 µM (inactive) | GI50 (HCC 2998): 55 µM (inactive) | GI50 (HCT-15): 20.2 µM | GI50 (HOP-62): 65.2 µM (inactive) | GI50 (HT-29): 27.1 µM (inactive) | GI50 (IGROV-1): 50.4 µM (inactive) | GI50 (MDA-N): 4.91 µM (inactive) | GI50 (MOLT-4): > 100 µM (inactive) | GI50 (OVCAR-3): 32.4 µM (inactive) | GI50 (OVCAR-4): > 100 µM (inactive) | GI50 (RPMI-8226): 62.7 µM (inactive) | GI50 (SK-MEL-2): 88.5 µM (inactive) | GI50 (U-251): 65.6 µM (inactive) | GI50 (UO-31): 55.6 µM (inactive)

CCOC(=O)CC1CCN(C(=O)c2ccccc2)C2Cc3c([nH]c4ccccc34)C12C[N+](=O)[O-] (centres undefined)
GI50 (ACHN): 67 µM (inactive) | GI50 (COLO 205): 61 µM (inactive) | GI50 (HCT-15): 95.7 µM | GI50 (HOP-62): 46.1 µM (inactive) | GI50 (HT-29): 62.2 µM (inactive) | GI50 (IGROV-1): 58.7 µM (inactive) | GI50 (MDA-N): > 100 µM (inactive) | GI50 (MOLT-4): 35 µM (inactive) | GI50 (NCI-H226): > 100 µM (inactive) | GI50 (OVCAR-4): > 100 µM (inactive) | GI50 (SF-539): > 100 µM (inactive) | GI50 (SK-MEL-2): > 100 µM (inactive) | GI50 (SR): 39.8 µM (inactive) | GI50 (U-251): 78.3 µM (inactive) | GI50 (UO-31): 48.3 µM (inactive)

CC1=NOC(C)(O)/C1=N/O (centres undefined)
GI50 (A549): > 100 µM (inactive) | GI50 (ACHN): > 100 µM (inactive) | GI50 (COLO 205): > 100 µM (inactive) | GI50 (HCC 2998): > 100 µM (inactive) | GI50 (HCT-15): > 100 µM | GI50 (HOP-62): > 100 µM (inactive) | GI50 (HT-29): > 100 µM (inactive) | GI50 (IGROV-1): > 100 µM (inactive) | GI50 (MOLT-4): > 100 µM (inactive) | GI50 (NCI-H226): > 100 µM (inactive) | GI50 (OVCAR-3): > 100 µM (inactive) | GI50 (OVCAR-4): > 100 µM (inactive) | GI50 (RPMI-8226): > 100 µM (inactive) | GI50 (SF-539): > 100 µM (inactive) | GI50 (SK-MEL-2): > 100 µM (inactive) | GI50 (U-251): > 100 µM (inactive) | GI50 (UO-31): > 100 µM (inactive)

O=[N+]([O-])C(Cl)=C/C(=C(\Cl)SCc1ccccc1)[N+](=O)[O-]
GI50 (A549): 24.8 µM (inactive) | GI50 (ACHN): 17 µM (inactive) | GI50 (COLO 205): 17.8 µM (inactive) | GI50 (HCC 2998): 30.6 µM (inactive) | GI50 (HCT-15): 18.2 µM | GI50 (HOP-62): 18.9 µM (inactive) | GI50 (HT-29): 24.7 µM (inactive) | GI50 (IGROV-1): 28.3 µM (inactive) | GI50 (MDA-N): 23.4 µM (inactive) | GI50 (MOLT-4): 17.7 µM (inactive) | GI50 (NCI-H226): 26.8 µM (inactive) | GI50 (OVCAR-3): 15.5 µM (inactive) | GI50 (OVCAR-4): 18.1 µM (inactive) | GI50 (SF-539): 21 µM (inactive) | GI50 (SK-MEL-2): 21.5 µM (inactive) | GI50 (U-251): 16.7 µM (inactive) | GI50 (UO-31): 20.5 µM (inactive)

CC12CCC(Br)C(C)(C)C1CC=C1C(=O)OCC1O2 (centres undefined)
GI50 (A549): 23.6 µM (inactive) | GI50 (ACHN): 12.5 µM (inactive) | GI50 (COLO 205): 18.2 µM (inactive) | GI50 (HCC 2998): 12.1 µM (inactive) | GI50 (HCT-15): 12.1 µM | GI50 (HT-29): 19 µM (inactive) | GI50 (IGROV-1): 3.72 µM (inactive) | GI50 (MOLT-4): 7.05 µM (inactive) | GI50 (NCI-H226): 10.1 µM (inactive) | GI50 (OVCAR-3): 16.9 µM (inactive) | GI50 (OVCAR-4): 16 µM (inactive) | GI50 (RPMI-8226): 2.73 µM (inactive) | GI50 (SF-539): 60.8 µM (inactive) | GI50 (SK-MEL-2): 13.6 µM (inactive) | GI50 (SR): 5.15 µM (inactive) | GI50 (U-251): 9.77 µM (inactive) | GI50 (UO-31): 8.13 µM (inactive)
